Experimental data reported in US5556849A, “Ruthenium containing phthalocyanin photosensitizers” (priority 1991, dated 1996).

Experiments:
[1] = Light absorption maxima and molar extinction coefficients; format: physicochemical
Procedure: (§1) Compounds according to the invention were assessed and characterised by their light absorption maxima, and their molar extinction coefficients according to conventional test procedures. Most of the compound were tested for their biological activity according to conventional test procedures in the art. The PC50 represents phototoxic concentration 50%. which is the concentration of compound when exposed to a light dose as described herein, causes a 50% reduction in cancer cell growth vs an untreated control population. The phototoxicity index. PI, is the ratio of the PC50 to the cytotoxic concentration 50%. where the growth is reduced by 50% without a light dose being given.

[2] = test system: Adherent cells (HeLa RCA. SKOV OVCAR); test: Phototoxicity (Light): 3H-thymidine incorporation in adherent cells after irradiation, with dark cytotoxicity for PI; format: cell-based; conditions: for PI (phototoxicity index): ratio of PC50 to cytotoxic concentration 50% (no light); for IC50 / PC50 (phototoxic concentration 50%): with light dose, 50% reduction in cancer cell growth vs untreated control, 24 h incubation with sensitizer; for IC50: read-out: PC50 (phototoxic concentration 50%)
Procedure: The media is removed and the cells washed three times with D-PBS. and then covered with D-PBS (200 μl ) and exposed to light from the same source used in the singlet oxygen assay.
This follows the procedure for phototoxicity except that the cells are never exposed to light. The assay is relative to a non-treated control.
as §1
PC50 is determined by a relatively simple in vitro assay on a cellular level, which is generally indicative of photosensitizing activity.

| SMILES | ε (molar extinction coefficient) [1] | λmax Q ([1]; in water (W)) | PI (phototoxicity index) [2] | IC50 [2] | PC50 (phototoxic concentration 50%) [2] | λmax Q ([1]; in methanol (M)) |
| --- | --- | --- | --- | --- | --- | --- |
| O=C(O)c1cncc(C(=O)O)c1.O=C(O)c1cncc(C(=O)O)c1.c1ccc2c(c1)C1=NC2=Nc2c3ccccc3c3[n]2[Ru][n]2c(c4ccccc4c2=NC2=NC(=N3)c3ccccc32)=N1 [RuPc(35PDCA)2] | 48400 M⁻¹ cm⁻¹ | 632 | > 5.6 | 18000 nM |  |  |
| O=C(O)c1cccnc1.O=C(O)c1cccnc1.c1ccc2cc3c(cc2c1)C1=NC3=Nc2c3cc4ccccc4cc3c3[n]2[Ru][n]2c(c4cc5ccccc5cc4c2=NC2=NC(=N3)c3cc4ccccc4cc32)=N1 [RuNc(Nic)2] | 169000 M⁻¹ cm⁻¹ | 762 | 22.2 | 105 nM |  |  |
| NCCC(=O)[O-].NCCC(=O)[O-].[K+].[K+].c1ccc2cc3c(cc2c1)C1=NC2=NC(=Nc4c5cc6ccccc6cc5c5[n]4[Ru][n]4c(c6cc7ccccc7cc6c4=N5)=NC3=N1)c1cc3ccccc3cc12 [RuNc(β-ALA)2] | 36500 M⁻¹ cm⁻¹ | 730 | 1.51 | 960 nM |  |  |
| O=C(O)c1cccnc1.O=C(O)c1cccnc1.c1ccc2c(c1)C1=NC2=Nc2c3ccccc3c3[n]2[Ru][n]2c(c4ccccc4c2=NC2=NC(=N3)c3ccccc32)=N1 [RuPc(Nic)2] | 648000 M⁻¹ cm⁻¹ | 630 | > 79 | 1260 nM |  |  |
| O=S(=O)([O-])c1cccc(P(c2ccccc2)c2ccccc2)c1.O=S(=O)([O-])c1cccc(P(c2ccccc2)c2ccccc2)c1.[K+].[K+].c1ccc2c(c1)C1=NC3=NC(=Nc4c5ccccc5c5[n]4[Ru][n]4c(c6ccccc6c4=N5)=NC2=N1)c1ccccc13 [RuPc(TPPMS)2] | 90300 M⁻¹ cm⁻¹ | 652 |  |  |  |  |
| O=C([O-])c1cccc(P(c2ccccc2)c2ccccc2)c1.[Na+].c1ccc2c(c1)C1=NC2=Nc2c3ccccc3c3[n]2[Ru][n]2c(c4ccccc4c2=NC2=NC(=N3)c3ccccc32)=N1.c1ccncc1 [RuPc(py)(TPPMC)] | 54600 M⁻¹ cm⁻¹ | 644 |  |  |  |  |
| Cc1cc2c(cc1C)C1=Nc3c4cc(C)c(C)cc4c4[n]3[Ru][n]3c(c5cc(C)c(C)cc5c3=NC3=NC(=N4)c4cc(C)c(C)cc43)=NC2=N1.O=C(O)c1cncc(C(=O)O)c1.O=C(O)c1cncc(C(=O)O)c1 [Ru(oMe)8 Pc(35PDCA2)] | 63300 M⁻¹ cm⁻¹ | 641 | 1 |  | Inactive |  |
| Fc1c(F)c(F)c2c(c1F)C1=NC2=Nc2c3c(F)c(F)c(F)c(F)c3c3[n]2[Ru][n]2c(c4c(F)c(F)c(F)c(F)c4c2=NC2=NC(=N3)c3c(F)c(F)c(F)c(F)c32)=N1.O=C(O)c1cccnc1.O=C(O)c1cccnc1 [RuF16 Pc(Nic)2] | 55700 M⁻¹ cm⁻¹ |  |  |  | Inactive |  |
| Nc1ccc(O)c(C(=O)O)c1.Nc1ccc(O)c(C(=O)O)c1.c1ccc2c(c1)C1=NC3=NC(=Nc4c5ccccc5c5[n]4[Ru][n]4c(c6ccccc6c4=N5)=NC2=N1)c1ccccc13 [RuPc(5AS)2] | 66500 M⁻¹ cm⁻¹ |  |  | 2000 nM |  |  |
| O=S(=O)([O-])c1cccc(P(c2cccc(S(=O)(=O)[O-])c2)c2cccc(S(=O)(=O)[O-])c2)c1.O=S(=O)([O-])c1cccc(P(c2cccc(S(=O)(=O)[O-])c2)c2cccc(S(=O)(=O)[O-])c2)c1.[Na+].[Na+].[Na+].[Na+].[Na+].[Na+].c1ccc2cc3c(cc2c1)C1=NC2=NC(=Nc4c5cc6ccccc6cc5c5[n]4[Ru][n]4c(c6cc7ccccc7cc6c4=N5)=NC3=N1)c1cc3ccccc3cc12 [RuNc(TPPTS)2] |  | 720 |  | > 100000 nM |  |  |
| O.O.O.O.O=S(=O)([O-])CCc1cc[n+]([Ru-2]2([n+]3ccc(CCS(=O)(=O)[O-])cc3)[n]3c4c5ccccc5c3N=C3N=C(N=c5c6ccccc6c([n]52)=NC2=NC(=N4)c4ccccc42)c2ccccc23)cc1.[K+].[K+] [RuPc(PES)2 (Ex 2), K2 [Ru(Pc)bis(4-pyridineethanesulfonate)]tetrahydrate] | 72500 M⁻¹ cm⁻¹ | 632 | 1 |  | Inactive |  |
| O=S(=O)(O)c1ccc[n+]([Ru-2]2([n+]3cccc(S(=O)(=O)O)c3)[n]3c4c5cc6ccccc6cc5c3N=C3N=C(N=c5c6cc7ccccc7cc6c([n]52)=NC2=NC(=N4)c4cc5ccccc5cc42)c2cc4ccccc4cc23)c1.[Na+].[Na+] [RuNc(3PS)2] |  |  |  | 460 nM |  |  |
| O=C(O)c1ccncc1C(=O)O.O=C(O)c1ccncc1C(=O)O.c1ccc2c(c1)C1=NC2=Nc2c3ccccc3c3[n]2[Ru][n]2c(c4ccccc4c2=NC2=NC(=N3)c3ccccc32)=N1 [RuPc(34PDCA)2] | 58800 M⁻¹ cm⁻¹ | 630 | 47.6 | 2100 nM |  |  |
| NCCC(=O)[O-].NCCC(=O)[O-].[K+].[K+].c1ccc2c(c1)C1=NC3=NC(=Nc4c5ccccc5c5[n]4[Ru][n]4c(c6ccccc6c4=N5)=NC2=N1)c1ccccc13 [RuPc(β-ALA)2] | 105000 M⁻¹ cm⁻¹ |  |  | 1900 nM |  |  |
| Nc1cccc(C(=O)O)c1.Nc1cccc(C(=O)O)c1.c1ccc2c(c1)C1=NC3=NC(=Nc4c5ccccc5c5[n]4[Ru][n]4c(c6ccccc6c4=N5)=NC2=N1)c1ccccc13 [RuPc(ABA)2] | 72500 M⁻¹ cm⁻¹ | 638 | 8.8 | 3500 nM |  |  |
| O=S(=O)([O-])c1ccc[n+]([Ru-2]2([n+]3cccc(S(=O)(=O)[O-])c3)[n]3c4c5cc6ccccc6cc5c3N=C3N=C(N=c5c6cc7ccccc7cc6c([n]52)=NC2=NC(=N4)c4cc5ccccc5cc42)c2cc4ccccc4cc23)c1.[Na+].[Na+] [RuNc(3PS)2] | 83000 M⁻¹ cm⁻¹ | 730 | 32.6 |  |  |  |
| O=S(=O)([O-])c1cccc(P(c2ccccc2)c2ccccc2)c1.O=S(=O)([O-])c1cccc(P(c2ccccc2)c2ccccc2)c1.[K+].[K+].c1ccc2cc3c(cc2c1)C1=NC2=NC(=Nc4c5cc6ccccc6cc5c5[n]4[Ru][n]4c(c6cc7ccccc7cc6c4=N5)=NC3=N1)c1cc3ccccc3cc12 [RuNc(TPPMS)2] | 54000 M⁻¹ cm⁻¹ | 734 | 1.6 | 2700 nM |  |  |
| N#Cc1cccc(C(=O)O)c1.N#Cc1cccc(C(=O)O)c1.c1ccc2c(c1)C1=NC3=NC(=Nc4c5ccccc5c5[n]4[Ru][n]4c(c6ccccc6c4=N5)=NC2=N1)c1ccccc13 [RuPc(CBA)2] | 97600 M⁻¹ cm⁻¹ | 650 | 10.2 | 420 nM |  |  |
| NCCS(=O)(=O)[O-].NCCS(=O)(=O)[O-].O.O.O.O.O.O.[Na+].[Na+].c1ccc2c(c1)C1=NC3=NC(=Nc4c5ccccc5c5[n]4[Ru][n]4c(c6ccccc6c4=N5)=NC2=N1)c1ccccc13 [RuPc(Tau)2 (Ex 3), Na2 [Ru(Pc)bis(taurine)]hexahydrate] | 79800 M⁻¹ cm⁻¹ | 634 | > 1.1 | 9000 nM |  | 623 |
| O=S(=O)([O-])c1cccc(P(c2cccc(S(=O)(=O)[O-])c2)c2cccc(S(=O)(=O)[O-])c2)c1.O=S(=O)([O-])c1cccc(P(c2cccc(S(=O)(=O)[O-])c2)c2cccc(S(=O)(=O)[O-])c2)c1.[Na+].[Na+].[Na+].[Na+].[Na+].[Na+].c1ccc2c(c1)C1=NC3=NC(=Nc4c5ccccc5c5[n]4[Ru][n]4c(c6ccccc6c4=N5)=NC2=N1)c1ccccc13 [RuPc(TPPTS)2] | 87400 M⁻¹ cm⁻¹ | 650 | > 15 | 11300 nM |  |  |
| O=S(=O)([O-])c1cccnc1.O=S(=O)([O-])c1cccnc1.[Na+].[Na+].c1ccc2c(c1)C1=NC2=Nc2c3ccccc3c3[n]2[Ru][n]2c(c4ccccc4c2=NC2=NC(=N3)c3ccccc32)=N1 [RuPc(3PS)2] | 736000 M⁻¹ cm⁻¹ | 630 | > 109 | 929 nM |  |  |
| O=C(O)c1cccnc1.O=C(O)c1cccnc1.c1cnc2c(n1)C1=NC2=Nc2c3nccnc3c3[n]2[Ru][n]2c(c4nccnc4c2=NC2=NC(=N3)c3nccnc32)=N1 [RupyrPc(Nic)2] | 45100 M⁻¹ cm⁻¹ | 625 | 1 |  | Inactive |  |
